For data set [1], the target named is T1, Bfl-1 (Homo sapiens, UniProt Q16548).
T1 sequence (Q16548 1-175): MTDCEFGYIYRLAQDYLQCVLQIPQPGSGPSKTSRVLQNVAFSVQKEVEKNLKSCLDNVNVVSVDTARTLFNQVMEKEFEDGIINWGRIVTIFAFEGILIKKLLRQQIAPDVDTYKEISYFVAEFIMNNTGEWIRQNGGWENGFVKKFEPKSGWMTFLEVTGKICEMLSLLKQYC
Kind of data set: Competitive binding assay after pre-forming the Bfl-1:NOXA disulfide bond. Conditions: Bfl-1:NOXA disulfide bond pre-formed. As for the experimental part:
The functional impact of the Bfl-1:NOXA disulfide bond formation was evaluated using competitive binding assays and liposomal release assays.

The target in data set [2] is T1, Bfl-1. Kind of data set: Bfl-1: Warhead SAHB conjugation assay. It is filed as binding. As to conditions: warhead SAHBs, reducing conditions. Here is the method: Various warhead SAHBs were tested in conjugation assays with Bfl-1. For this series of peptides the warhead at position J was selected from those depicted below.
10 μM Bfl-1 was reduced with DTT, then incubated with 3:1 molar ratio of warhead SAHB. Samples were then combined with loading dye, run on a 12% Bis-Tris SDS-PAGE, and stained with Coomassie. The same setup was used for all antiapoptotic proteins tested.

In the next data set the test system is MCF7. Kind of data set: Cytotoxicity and caspase 3/7 activation. Format: cell-based. As to conditions: non-melanoma line; data not shown. As for the experimental part: (§1) Cell Viability, LDH Release, and Caspase-3/7 Activation Assays: Cancer cells were cultured using their standard culture media containing 10% FBS and penicillin/streptomycin (A375P: DMEM; SK-MEL-2, SK-MEL-28 and MCF-7: EMEM; A549, H929: RPMI). […] Cell viability and caspase 3/7 activation was measured using CellTiter-Glo and Caspase-Glo 3/7 chemiluminescence reagents (Promega), respectively, and luminescence detected by a microplate reader (Spectramax M5, Molecular Devices). LDH release was quantified after 30 min peptide incubation by plate centrifugation at 1500 rpm for 5 min at 4° C., transfer of 100 μL cell culture media to a clear plate (Corning), incubation with 100 μL LDH reagent (Roche) for 30 min while shaking, and measurement of absorbance at 490 nm on a Spectramax M5 microplate reader.

The subject of a further data set is SK-MEL-2. The data set can be described thus: Cytotoxicity and caspase 3/7 activation. It is filed as cell-based. As to conditions: BFL-1 expressing melanoma line; data not shown. Here is the method: as §1
In the next data set the test system is SK-MEL-28. The data set can be described thus: Cytotoxicity and caspase 3/7 activation. It is filed as cell-based. Conditions: BFL-1 expressing melanoma line; data not shown. As for the experimental part: as §1
The subject of the next data set is H929. Kind of data set: Cytotoxicity and caspase 3/7 activation. Format: cell-based. Conditions: non-melanoma line; data not shown. As for the experimental part:
as §1

In another data set the test system is A549. The data set can be described thus: Cytotoxicity and caspase 3/7 activation. As to conditions: non-melanoma line; data not shown. It is filed as cell-based. As for the experimental part:
as §1

Another data set concerns A375P cells. Kind of data set: Cell viability (CellTiter-Glo). Format: cell-based, human. As to conditions: 40 μM, over time. Here is the method: We confirmed by LDH release assay that BIM SAHBs had no membranolytic effect on the cells (FIG. 16B). The observed cytotoxicity was instead consistent with mitochondrial apoptosis induction, as reflected by time-responsive caspase 3/7 activation (FIG. 16C) and mitochondrial cytochrome c release (FIG. 16D).
as §1

A further data set has as its target T2, FLAG-MCL-1 (Homo sapiens, UniProt Q07820).
T2 construct: expressed in transfected cells; host or cells: 293T cells, p3×FLAG-CMV-10 vector, transient
Kind of data set: Competition with tBID in 293T lysates (immunoprecipitation). As to conditions: 5 μM biotinylated peptide, 0.25 μM tBID, 6 h RT. Format: binding. As for the experimental part:
293T cells were maintained in DMEM containing 10% FBS and penicillin/streptomycin, and transfections performed with 2 μg pCMV plasmid containing HA-BFL-1ΔC C4S/C19S using X-tremeGENE 9 (Roche). For lysate experiments, cells were trypsinized 24 hours post-transfection, washed with PBS, and lysed by incubation with 1% CHAPS lysis buffer (150 mM NaCl, 50 mM Tris pH 7.4, 100 mM DTT). Protein concentration of the soluble fraction was measured using a BCA kit according to manufacturer's instructions (Thermo Scientific). […] Samples were then boiled in LDS buffer and subjected to western analysis using 1:1000 dilutions of HA (Sigma-Aldrich, #12CA5) and biotin (Abcam, #53494) antibodies. To evaluate the capacity of biotinylated SAHBs to compete with tBID for interactions with BFL-1 and MCL-1, 293T cells were transfected with either HA-BFL-1ΔC C4S/C19S or FLAG-MCL-1 in the p3×FLAG-CMV-10 vector (Sigma) as above. After 24 h, cells were trypsinized, washed with PBS, lysed in 1% CHAPS buffer, and the supernatant collected for protein concentration determination by BCA kit. […] The mixtures were then subjected to HA or FLAG (Sigma-Aldrich, F7425) immunoprecipitation, followed by western analysis using 1:1000 dilutions of HA, FLAG, biotin, and BID (Santa Cruz sc-11423) antibodies. […] Cells were harvested and lysed as above, and incubated overnight with anti-HA agarose beads (Pierce). […]

In the next data set the target is T3, MCL-1 (Homo sapiens, UniProt Q07820).
T3 construct: we incubated A375P lysates with the corresponding biotinylated BIM SAHBs; endogenous in cells; host or cells: A375P melanoma cell lysate
Kind of data set: SA pull-down from A375P lysates, MCL-1 western. As to conditions: biotinylated SAHBs. It is filed as binding.

Another data set concerns the target T4, HA-BFL-1ΔC C4S/C19S (Homo sapiens, UniProt Q16548, C19S/C4S).
T4 construct: BFL-1ΔC (aa 1-153); expressed in transfected cells; host or cells: 293T cells, pCMV plasmid, transient
T4 sequence (Q16548 1-153 C4S/C19S): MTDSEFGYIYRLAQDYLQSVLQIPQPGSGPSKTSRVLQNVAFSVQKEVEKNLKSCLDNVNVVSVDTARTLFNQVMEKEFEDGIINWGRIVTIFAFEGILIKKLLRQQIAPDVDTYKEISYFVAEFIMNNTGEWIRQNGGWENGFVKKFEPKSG
The data set can be described thus: Competition with tBID in 293T lysates (immunoprecipitation). As to conditions: 5 μM biotinylated peptide, 0.25 μM tBID, 6 h RT. Format: binding. Here is the method: Protein concentration of the soluble fraction was measured using a BCA kit according to manufacturer's instructions (Thermo Scientific). […] After 24 h, cells were trypsinized, washed with PBS, lysed in 1% CHAPS buffer, and the supernatant collected for protein concentration determination by BCA kit. […] Cells were harvested and lysed as above, and incubated overnight with anti-HA agarose beads (Pierce). The beads were washed 3 times with lysis buffer, eluted by boiling in LDS buffer, and subjected to western analysis with HA and biotin antibodies. […] Biotin capture was accomplished by incubating the mixture with high-capacity SA agarose (Thermo Scientific) for 2 h at 4° C., followed by centrifugation and washing the pelleted beads with 3×1 mL lysis buffer.

Bridge positions count the residues as written; N and C are the ends. Square brackets hold non-standard residues; d marks the D form. Ends that are not written are not given here. S5 = C=CCCC[C@](C)(N)C(=O)O

T2 sequence (Q07820 whole entry): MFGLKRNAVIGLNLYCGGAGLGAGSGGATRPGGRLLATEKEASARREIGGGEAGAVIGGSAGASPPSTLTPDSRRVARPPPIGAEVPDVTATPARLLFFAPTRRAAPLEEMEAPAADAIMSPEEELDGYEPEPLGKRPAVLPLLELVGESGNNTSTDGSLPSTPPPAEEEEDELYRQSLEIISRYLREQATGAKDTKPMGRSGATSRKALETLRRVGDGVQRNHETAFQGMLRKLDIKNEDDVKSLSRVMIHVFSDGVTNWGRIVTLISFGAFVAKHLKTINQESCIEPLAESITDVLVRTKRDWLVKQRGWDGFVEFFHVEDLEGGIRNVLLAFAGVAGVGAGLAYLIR

On to “NOXA SAHBA C25S: NOXA SAHBA with C25S mutation; SEQ ID NO: 128 (AELEVESATQLR[S5]FGD[S5]LNFRQKLL; staple 13-17; not fully specified)”, for which the “availability of the Bfl-1 binding pocket to another FITC BH3 domain” value with Bfl-1 [1] is recorded as “abrogated these inhibitory effects”.
As for `O=C(O)[C@H]1CCCCN1` [D-homoproline], the covalent binding efficiency entry at Bfl-1 [2] is on record as “less efficient”.
Still for that read-out and setting: the value for `CN(C)C/C=C/C(=O)O` [trans-4-dimethylaminocrotonic acid] was “less efficient”.
As to `C=CC(=O)N1CCC[C@@H](C(=O)N[C@H](C(=O)N[C@@H](C)C(=O)N[C@@H](CCC(N)=O)C(=O)N[C@@H](CCC(=O)O)C(=O)N[C@@H](CC(C)C)C(=O)N[C@@H](CCCNC(=N)N)C(=O)N[C@@]2(C)CCCC=CCCC[C@@](C)(C(=O)N[C@@H](Cc3ccccc3)C(=O)N[C@@H](CC(N)=O)C(=O)N[C@@H](C)C(=O)N[C@@H](Cc3ccc(O)cc3)C(=O)N[C@@H](Cc3ccc(O)cc3)C(=O)N[C@@H](C)C(=O)N[C@@H](CCCNC(=N)N)C(=O)N[C@@H](CCCNC(=N)N)C(N)=O)NC(=O)[C@H](CC(=O)O)NC(=O)CNC(=O)[C@H]([C@@H](C)CC)NC2=O)[C@@H](C)CC)C1` [BIM SAHBA-3], the “enhancement in cytotoxicity and caspase 3/7 activation” value was “no evidence of this phenomenon” in the data set with MCF7; “comparative enhancement in cytotoxicity and caspase 3/7 activation” in the data set with SK-MEL-2; “comparative enhancement in cytotoxicity and caspase 3/7 activation” in the data set on SK-MEL-28; “no evidence of this phenomenon” in the data set with H929; “no evidence of this phenomenon” in the data set on A549. Also, the “cytotoxicity compared to BIM SAHBA1” value with A375P cells is listed as “significant enhancement in cytotoxicity over time”.
On to `O=C(O)[C@@H]1CCCCN1` [L-homoproline], for which the covalent binding efficiency result at Bfl-1 [2] is “less efficient”.
With “BIM SAHBA: BIM SAHBA (aa 147-166), corresponding construct lacking the acrylamide-based warhead”, in the data set with FLAG-MCL-1, the “competition with tBID for FLAG-MCL-1” value is on record as “equally effective at competing with tBID”. Also, in the data set with MCL-1, the “binding to MCL-1” value is “equivalent binding to anti-apoptotic MCL-1”. The “competition with tBID for HA-BFL-1 binding” value with HA-BFL-1ΔC C4S/C19S was “incapable of competing with tBID for HA-BFL-1 binding”.
